In patent publication US6090825A, “Oxazole derivatives as antagonists of alpha 1C andrenergic receptors” (Glaxo Wellcome Inc., priority 1994, dated 2000):
Structures can show the parent of a compound that is named as a salt. One block for each compound: values may come before it.

Tests used:
urethral pressure = experiment: Canine urethral-prostate pressure: inhibition of hypogastric nerve stimulation response in anesthetized dog; type: in vivo, male mongrel dogs
Description: (§1) A. CANINE URETHRAL-PROSTATE PRESSURE
(§2) To evaluate the ability of compounds to affect urethral-prostate pressure (contractility) while assessing their cardiovascular effects simultaneously.
Using hypogastric nerve stimulation (NS) and the .varies.-1 agonist phenylephrine (or other receptor agonists, as appropriate) the responses of urethral pressures and systemic blood pressure are recorded. The tests compounds are then given in a log dose infusion. The inhibition of the NS response within the prostate as well as the systemic phenylephrine response on blood pressure is measured to assess the uro-selectivity of the compound in the anesthetized dog. […]
(§3) 4. Rectal temperature is monitored and maintained at 37-39° C. with a heating pad. […]
3. […] The effects of either nerve stimulation (NS) or IV phenylephrine can be evaluated.
(§4) 1. After a control period of at least 30 minutes and establishment of stable baselines of urethral and blood pressure are observed, the control responses to NS or phenylephrine bolus are recorded.
2. A hypogastric nerve stimulation of 16 Hertz, 10 Volts, 10 msec pulse width and 10 sec train duration are given and changes in urethral pressures are recorded.
3. At a time point 5 minutes post NS a phenylephrine bolus (10 μg/kg) is given into the cephalic vein and changes in blood pressure are recorded. […]

diastolic blood pressure = experiment: Canine model: inhibition of phenylephrine response on diastolic blood pressure in anesthetized dog; type: in vivo, male mongrel dogs; conditions: Canis lupus familiaris, iv, dose (salt) producing 50% inhibition of agonist (phenylephrine) response on diastolic blood pressure, cumulative i.v. infusion, read-out: BP ED50
Description: as §1, §2
Using hypogastric nerve stimulation (NS) and the .varies.-1 agonist phenylephrine (or other receptor agonists, as appropriate) the responses of urethral pressures and systemic blood pressure are recorded. The tests compounds are then given in a log dose infusion. The inhibition of the NS response within the prostate as well as the systemic phenylephrine response on blood pressure is measured to assess the uro-selectivity of the compound in the anesthetized dog.
Interesting compounds are those that express uro-selectivity with a ratio of >100 for the urethral pressure vs diastolic blood pressure comparisons (BP.US). […]
as §3, §4
3. At a time point 5 minutes post NS a phenylephrine bolus (10 μg/kg) is given into the cephalic vein and changes in blood pressure are recorded. At least two NS and phenylephrine injections are performed and evaluated for their consistency, the second consistent stimulation is picked for the baseline value response. […]

male Wistar rats = experiment: Behavioural and autonomic observation after oral dosing in rats; type: in vivo; conditions: 10 mg/kg po
Description: The compound of Example 13 was administered at 10 mg/kg (po) to male Wistar rats.

[1] = Crystal form stability and hygroscopicity; type: physicochemical
Description: Compounds of the present invention can exist in more than one crystalline form. For example, crystalline forms may vary from solvate to solvate. Compounds of the present invention encompass all possible crystalline forms. In particular, for example, 5-(2-{4-[5-(4-fluorophenyl)-4-(2,2,2-trifluoroethoxymethyl)-oxazol-2-yl}-ethyl)-2-methoxybenzenesulfonamide hydrochloride exists in four known crystal forms. Form I melts around 145° C. and converts to Form III which has a melting point around 200° C.

SMILES: COc1ccc(CCN2CCC(c3nc(COCC(F)(F)F)c(-c4ccc(F)cc4)o3)CC2)cc1S(N)(=O)=O [Example 12, 2-Methoxy-5-(2-{4-[5-(4-fluoro-phenyl)-4-(2,2,2-trifluoro-ethoxymethyl)-oxazol-2-yl]-piperidin-1-yl}-ethyl)-benzenesulfonamide]
- ED50 (urethral pressure; Canis lupus familiaris, iv, dose (salt) producing 50% inhibition of nerve stimulation response on urethral pressure, cumulative i.v. infusion, anesthetized dog, read-out: UP ED50): 0.013 mg/kg
- BP/UP (urethral pressure; ratio of the BP ED50 to the UP ED50, uro-selectivity): 550
- ED50 (diastolic blood pressure): 7.15 mg/kg

- ptosis (male Wistar rats; between 1 and 4 hours after dosing): Slight to moderate ptosis was observed
- hygroscopicity ([1]; below 70% relative humidity): non-hydgroscopic
- solid state and chemical stability ([1]; below 70% relative humidity): good solid state and chemical stability
- conversion of crystal form ([1]; greater than 70% relative humidity): converts to form IV
SMILES: COc1ccc(CCN2CCC(c3nc(COCC(F)(F)F)c(-c4ccc(F)cc4)o3)CC2)cc1S(N)(=O)=O [Example 13, 5-(2-{4-[5-(4-fluorophenyl)-4-(2,2,2-trifluoroethoxymethyl)-oxazol-2-yl}-ethyl)-2-methoxybenzenesulfonamide hydrochloride]
- animals' appearance by 24 hours after dosing (male Wistar rats; 24 hours): all animals appeared normal by 24 hours after dosing

- conversion of crystal form ([1]; room temperature, aqueous media): convert to a hydrated form (Form IV)
SMILES: COc1ccc(CCN2CCC(c3nc(COCC(F)(F)F)c(-c4ccc(F)cc4)o3)CC2)cc1S(N)(=O)=O [Form I, 5-(2-{4-[5-(4-fluorophenyl)-4-(2,2,2-trifluoroethoxymethyl)-oxazol-2-yl}-ethyl)-2-methoxybenzenesulfonamide hydrochloride]

SMILES: COc1ccc(CCN2CCC(c3nc(COCC(F)(F)F)c(-c4ccc(F)cc4)o3)CC2)cc1S(N)(=O)=O [Form IV, 5-(2-{4-[5-(4-fluorophenyl)-4-(2,2,2-trifluoroethoxymethyl)-oxazol-2-yl}-ethyl)-2-methoxybenzenesulfonamide hydrochloride]
- conversion of crystal form ([1]; upon separation from the aqueous media): readily converts to an anhydrous form (Form II)
